Data reported in patent publication US20030077653A1, “Method for the identification of active site protease inactivators” (The University of Georgia Research Foundation, Inc., priority 2000, published 2003).
Starred links: 1 amine or outer side, 2 acyl side, 3 side chain; linkers in the order of their positions; H or OH if unused. Residues, ends and D or L forms follow the SMILES beside them. *: point of attachment. AFC = O=c1cc(C(F)(F)F)c2ccc(N*)cc2o1; Morpholide = C1CN(*)CCO1; Cbz = O=C(OCc1ccccc1)*; CO = O=C([*:1])[*:2]; CH2F = FC*

Experiments:
Trypsin = experiment: Differential cleavage (selectivity) test; type: biochemical, human; conditions: pH 8.0, Z-R-AFC
Procedure: (§1) In order to perform the assay, the vehicle (for Step VI) or inhibitor (for Step IX) were incubated with the appropriate substrate in the correct assay buffer and allowed to equilibrate. Subsequently, the protease was added, and the assay was allowed to incubate for an appropriate time. The concentrations used in this experiment were as follows: Vehicle was set up at 4×10^−5 M in final assay buffer; Inhibitor was set up at 3×10^−10 M in the final assay buffer. Accordingly, the dosages employed should be the minimal amount of vehicle or inhibitor necessary to induce inhibition. […] Substrates were set up based upon the preferred substrate for cleavage of the particular enzyme.
(§2) Positive controls were set up similarly as described for test controls, except that solvent was added in substitution for the inhibitor or vehicle (in a volume equal to the volume of inhibitor or vehicle addition). All of the inhibitors and vehicles could be dissolved in dimethylsulfoxide (DMSO), and therefore, this was the solvent of choice. Negative controls were set up by adding the inhibitor or vehicle and the preferred substrates in a tube without the protease. All potential non-proteolytic liberation of AFC was therefore controlled for in this tube (a feature which also insured stability of the AFC substrates, since these substrates will freely liberate AFC when unstable).
(§3) All controls were set up in triplicate, and experiments were repeated a minimum of five times.
(§4) Percent inhibition was calculated as: [formula]
(§5) In this preliminary test, we employed the following human-derived enzymes (with indicated mechanistic class): Cathepsin B (cysteine), Cathepsin L (cysteine), Cathepsin H (cysteine), Cathepsin D (aspartic) Trypsin (serine), the purified Taenia solium cysteine protease, and the Taenia solium crude mix. Cathepsin B was prepared in an assay buffer of 10 mM L-cysteine in 0.4 M Citrate buffer, pH 6. 1, using Z-ARR-AFC as the cleavage substrate. Cathepsin L was prepared in an assay buffer of 10 mM L-cysteine in 0.4 M Citrate buffer, pH 5.5, using Z-FR-AFC as the cleavage substrate. Cathepsin H was prepared in an assay buffer of 10 mM L-cysteine in 0.15 M PBS buffer, pH 6.8, using L- R-AFC as the cleavage substrate. Cathepsin D was prepared in an assay buffer of 0.15 M PBS, pH 7.1, using Z-RGFFP-AFC as the cleavage substrate. Trypsin was prepared in an assay buffer of 0.15 M PBS, pH 8.0, supplemented with 100 mM CaCl2 and with Z-R-AFC as the cleavage substrate. Enzyme was incubated so that it was at least 50 times less than the concentration of substrate in order to insure saturating conditions.

Cathepsin D = Cathepsin D (Homo sapiens, UniProt P07339); experiment: Differential cleavage (selectivity) test; type: biochemical; conditions: pH 7.1, Z-RGFFP-AFC
Sequence of Cathepsin D (P07339 65-412): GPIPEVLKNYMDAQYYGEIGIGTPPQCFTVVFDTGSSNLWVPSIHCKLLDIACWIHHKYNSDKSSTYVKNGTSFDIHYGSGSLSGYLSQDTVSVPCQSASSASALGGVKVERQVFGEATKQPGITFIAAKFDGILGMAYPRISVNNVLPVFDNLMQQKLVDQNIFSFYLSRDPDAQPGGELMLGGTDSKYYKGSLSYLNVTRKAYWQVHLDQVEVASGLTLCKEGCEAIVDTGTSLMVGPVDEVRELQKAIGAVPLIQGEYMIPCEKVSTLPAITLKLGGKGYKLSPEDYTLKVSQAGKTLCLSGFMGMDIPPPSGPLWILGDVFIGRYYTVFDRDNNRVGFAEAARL
Procedure: as §1, §2, §3, §4, §5

Cathepsin H = target: T1, Cathepsin H (Homo sapiens, UniProt P09668); experiment: Differential cleavage (selectivity) test; type: biochemical; conditions: pH 6.8, L-R-AFC
T1 sequence (P09668 98-335): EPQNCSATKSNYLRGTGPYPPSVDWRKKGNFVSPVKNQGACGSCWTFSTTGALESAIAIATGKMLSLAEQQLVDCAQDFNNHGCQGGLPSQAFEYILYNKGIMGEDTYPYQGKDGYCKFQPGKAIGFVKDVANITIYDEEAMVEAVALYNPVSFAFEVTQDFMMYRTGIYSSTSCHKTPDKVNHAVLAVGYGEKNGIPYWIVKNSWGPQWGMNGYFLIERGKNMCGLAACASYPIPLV
Procedure: as §1, §2, §3, §4, §5

Cathepsin B = Cathepsin B (Homo sapiens, UniProt P07858); experiment: Differential cleavage (selectivity) test; type: biochemical; conditions: pH 6.1, Z-ARR-AFC
Procedure: as §1, §2, §3, §4, §5

[1] = system: purified Taenia solium cysteine protease; experiment: Protease inactivator inhibition assay (EC100, Ki; Step VII); type: biochemical
From the text: Once the protease inactivators were synthesized in the organic laboratory, they were to be tested for the lowest efficacious concentrations at which they induced 100% inhibition of the target protease (EC100). The top percent cocktail that was employed in the final vehicle selection step of Step III was employed as the source of competition for the inhibitors. In this case, this was the […] which was comprised of Z-FR-AFC, Z-FAR-AFC, Z-AP-AFC, Z-AAK-AFC, and Z-VLR-AFC. The final result would be a ranking of transition state candidate protease inactivators with a high ranking directly correlating to a low ECIoo value. The following steps describe the assay:
Step A: Initial Screening. To set up the test control, each protease inactivator was first incubated with the 5% cocktail (which provided the final differentiation of vehicles in Step III). To begin with, the protease inactivator was incubated at a concentration of 3×10^−9M in 500 μl of assay buffer (0.2 M Citrate, pH 4.9 supplemented with 10mM L-cysteine). This concentration was determined, after a series of inhibitor dilutions identified, to be the best inhibitor concentration at which a differentiation in inhibitor potential could be noted. Next, a concentration equal to 4×10^−5M for each of the individual cocktail components, was added to the mix. The components were allowed to equilibrate for a period of 30 minutes. […]
Percent inhibition was calculated as: [formula] […]
Step C: Determination ofInhibitor Ki and mode of inhibition, and re-ranking of EC100 list with inhibitor Ki. Ki of each of the top ranked protease inactivators, based upon low EC100 values, was assessed next for the top 5 EC100 inhibitors.
In order to determine Ki, all of the high Vmax cocktail substrates were employed for Ki determination (since Ki of the inhibitor for the enzyme is the same regardless of the substrate). To insure the highest accuracy, Ki was to be determined upon a minimum of at least three of the high Kcat substrates. […]

Row | SMILES | Percent inhibition of Trypsin (serine) (Trypsin; vehicle 4×10^−5 M) [%] | Percent inhibition of Cathepsin D (aspartic) (Cathepsin D; vehicle 4×10^−5 M) [%] | Percent inhibition of Cathepsin H (cysteine) (Cathepsin H; vehicle 4×10^−5 M) [%] | Percent inhibition of Cathepsin B (cysteine) (Cathepsin B; vehicle 4×10^−5 M) [%] | Percent inhibition of Trypsin (serine) (Trypsin; inhibitor 3×10^−10 M) [%] | Percent inhibition of Cathepsin D (aspartic) (Cathepsin D; inhibitor 3×10^−10 M) [%] | Percent inhibition of Cathepsin H (cysteine) (Cathepsin H; inhibitor 3×10^−10 M) [%] | Percent inhibition of Cathepsin B (cysteine) (Cathepsin B; inhibitor 3×10^−10 M) [%] | ranking of protease inactivators by inhibition / EC100 [1]
1 | CC(C)C[C@H](NC(=O)N1CCOCC1)C(=O)N[C@@H](Cc1ccc(O)cc1)C(=O)Nc1ccc2c(C(F)(F)F)cc(=O)oc2c1 [Mu-LY-AFC, Mu-Leu-Tyr-AFC] ({Morpholide-CO}-Leu-Tyr-{AFC}) | 0 | 0 | 0 | 0 | – | – | – | – | –
2 | CC(C)C[C@H](NC(=O)[C@H](CC(C)C)NC(=O)[C@H](CC(C)C)NC(=O)OCc1ccccc1)C(=O)CF [Z-LLL-FMK, Z-Leu-Leu-Leu-fluoromethylketone] (Cbz-Leu-Leu-Leu-CH2F) | – | – | – | – | 0 | 0 | 0 | 0 | top inhibitors
3 | CC(C)C[C@H](NC(=O)OCc1ccccc1)C(=O)N[C@@H](CC(C)C)C(=O)N[C@@H](Cc1ccc(O)cc1)C(=O)CF [Z-LLY-FMK, Z-Leu-Leu-Tyr-FMK] (Cbz-Leu-Leu-Tyr-CH2F) | – | – | – | – | 0 | 0 | 0 | 0 | top inhibitors
